Assay results as given in patent publication US8389523B2, “Substituted quinoxaline and an agrochemical composition thereof” (Kumiai Chemical Industry Co., Ltd., priority 2007, dated 2013).

Key:
Format in all cases: in vivo
Set-up in all cases: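 grade 0 to 5 of growth suppression where 5 is 90% or more and 0 below 10%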
[1] = tested on: Scirpus juncoides Roxb. var. ohwianus. T. Koyama; experiment: Herbicidal effects in paddy field soil treatment (Test Example 1); details: paddy field soil treatment; 1000 g of the active ingredient per hectare; wettable powder added dropwise on water surface; 21st day after treatment
Method: (§1) Test for Herbicidal Effects in Paddy Field Soil Treatment
(§2) A 100-cm^2 plastic pot was filled with paddy field soil. After puddling and leveling, seeds of Echinochloa oryzicola Vasing, Monochoria vaginalis (Burm. f.) Presl var. plantaginea (Roxb.) Solms-Laub., and Scirpus juncoides Roxb. var. ohwianus. T. Koyama were sowed, and the soil was waterlogged to a water depth of 3 cm. On the next day, a wettable powder formulation prepared according to Preparation Example 1 was diluted with water, and was added dropwise on the water surface. The amount of application was an amount equivalent to 1000 g of the active ingredient per hectare. Thereafter, the plants were grown in a greenhouse, and on the 21st day after the treatment, the herbicidal effects were investigated according to the criteria described in Table 138.

[2] = tested on: Echinochloa oryzicola Vasing; experiment: as above; details: paddy field soil treatment; 1000 g of the active ingredient per hectare; wettable powder added dropwise on water surface; 21st day after treatment
Method: as §1, §2

[3] = tested on: Monochoria vaginalis (Burm. f.) Presl var. plantaginea (Roxb.) Solms-Laub.; experiment: as above; details: paddy field soil treatment; 1000 g of the active ingredient per hectare; wettable powder added dropwise on water surface; 21st day after treatment
Method: as §1, §2

[4] = tested on: Amaranthus viridis L.; experiment: Herbicidal effects in upland field soil treatment (Test Example 2); details: 1000 g active ingredient per hectare, 21st day after treatment, criteria of Table 138
Method: (§3) Test Example 2 Test on Herbicidal Effects in Upland Field Soil Treatment A 80-cm^2 plastic pot was filled with upland field soil. Seeds of Abutilon theophrasti medicus and Amaranthus viridis L. were sowed, and soil was covered. A wettable powder formulation prepared according to Preparation Example 1 was diluted with water, and was uniformly sprayed on the soil surface with a small sprayer, in an amount equivalent to 1000 liters per hectare, such that 1000 g of the active ingredient per hectare was applied. Thereafter, the plants were grown in a greenhouse, and on the 21st day after the treatment, the herbicidal effects were investigated according to the criteria described in the Table 138 shown above.

[5] = tested on: Abutilon theophrasti medicus; experiment: as above; details: 1000 g active ingredient per hectare, 21st day after treatment, criteria of Table 138
Method: as §3

Row | SMILES | Herbicidal effects index, Scirpus juncoides Roxb. var. ohwianus. T. Koyama [1] | Herbicidal effects index, Echinochloa oryzicola Vasing [2] | Herbicidal effects index, Monochoria vaginalis (Burm. f.) Presl var. plantaginea (Roxb.) Solms-Laub. [3] | herbicidal effect (index) on Amaranthus viridis L. [4] | herbicidal effect (index) on Abutilon theophrasti medicus [5]
1 | COc1ccc2nc(C(=O)C3=C(O)CCCC3=O)c(=O)n(-c3ccc(C)cc3)c2c1 [II-306] | 5 | 5 | 5 | 5 | 5
2 | COc1ccc(-n2c(=O)c(C(=O)C3=C(O)CCCC3=O)nc3c(C)cccc32)cc1 [II-245] | 5 | 5 | 5 | 5 | 5
3 | COc1ccc(-n2c(=O)c(C(=O)C3=C(O)CCCC3=O)nc3c(Cl)cccc32)cc1F [II-301] | 5 | 5 | 5 | 5 | 5
4 | Cn1c(=O)c(C(=O)C2=C(O)CCCC2=O)nc2c(Cl)cccc21 [I-223] | 5 | 4 | 5 | 5 | 5
5 | O=C1CCCC(O)=C1C(=O)c1nc2ccccc2n(-c2ccc(Cl)nn2)c1=O [I-273] | 5 | 5 | 5 | 5 | 5
6 | O=C1CCCC(O)=C1C(=O)c1nc2ccccc2n(-c2ccc3c(c2)OCCCO3)c1=O [II-232] | 5 | 4 | 5 | 5 | 4
7 | COc1ccc(-n2c(=O)c(C(=O)C3=C(O)CCCC3=O)nc3c(F)cccc32)cn1 [I-279] | 5 | 4 | 5 | 5 | 5
8 | CSCn1c(=O)c(C(=O)C2=C(O)CCCC2=O)nc2cccnc21 [III-70] | 5 | 4 | 5 | 5 | 5
9 | O=C1CCCC(O)=C1C(=O)c1nc2c(F)cccc2n(-c2ccc3c(c2)OCCO3)c1=O [II-236] | 5 | 4 | 5 | 5 | 4
10 | C=CCOc1ccc(-n2c(=O)c(C(=O)C3=C(O)CCCC3=O)nc3ccccc32)cc1 [II-81] | 5 | 5 | 5 | 5 | 5
11 | Cn1nc(C(F)(F)F)nc1-n1c(=O)c(C(=O)C2=C(O)CCCC2=O)nc2ccccc21 [I-165] | 5 | 5 | 5 | 5 | 5
12 | Cc1ccc(-n2c(=O)c(C(=O)C3=C(O)CCCC3=O)nc3ccccc32)cc1Cl [II-216] | 5 | 5 | 5 | 5 | 4
13 | CC(C)(C)c1cc(-n2c(=O)c(C(=O)C3=C(O)CCCC3=O)nc3ccccc32)no1 [I-265] | 5 | 4 | 5 | 5 | 4
14 | O=C1CCCC(O)=C1C(=O)c1nc2ccccc2n(-c2ccc3c(c2)OCCO3)c1=O [I-209, 1-(2,3-dihydrobenzo[b]1,4-dioxin-6-yl)-3-(2-hydroxy-6-oxo-1-cyclohexenecarbonyl)-quinoxalin-2(1H)-one] | 5 | 4 | 5 | 5 | 4
15 | COc1ccc(-n2c(=O)c(C(=O)C3=C(O)CCCC3=O)nc3c(Cl)cccc32)cc1 [II-194, 5-chloro-3-(2-hydroxy-6-oxo-1-cyclohexenecarbonyl)-1-(4-methoxyphenyl)-quinoxalin-2(1H)-one] | 5 | 4 | 5 | 5 | 4
16 | CC(C)c1cccc(-n2c(=O)c(C(=O)C3=C(O)CCCC3=O)nc3ccccc32)c1 [II-29] | 5 | 5 | 5 | 5 | 4
17 | O=C1CCCC(O)=C1C(=O)c1nc2ccccc2n(-c2ccc3ccccc3c2)c1=O [I-264] | 5 | 4 | 5 | 5 | 4
18 | COc1ccc(-n2c(=O)c(C(=O)C3=C(O)CCCC3=O)nc3ccccc32)c(F)c1 [II-174] | 5 | 5 | 5 | 5 | 4
19 | CC1CC(C)C(O)=C(C(=O)c2nc3ccccc3n(-c3ccc4c(c3)OCCO4)c2=O)C1=O (stereo not drawn) [II-229] | 5 | 5 | 5 | 5 | 4
20 | O=C1CCCC(O)=C1C(=O)c1nc2cccc(Cl)c2n(-c2ccccc2)c1=O [II-193] | 5 | 5 | 5 | 5 | 5
21 | COc1ccc(-n2c(=O)c(C(=O)C3=C(O)CCCC3=O)nc3ccc(C)cc32)cc1 [II-247] | 5 | 4 | 5 | 5 | 5
22 | COc1ccc(-n2c(=O)c(C(=O)C3=C(O)CCCC3=O)nc3c(F)cccc32)cc1 [II-186, 5-fluoro-3-(2-hydroxy-6-oxo-1-cyclohexenecarbonyl)-1-(4-methoxyphenyl)-quinoxalin-2(1H)-one] | 5 | 4 | 5 | 5 | 5
23 | COc1ccc(-n2c(=O)c(C(=O)C3=C(O)CCCC3=O)nc3ccccc32)cc1C [II-180] | 5 | 5 | 5 | 5 | 4
24 | CC1CC(C)(C)C(O)=C(C(=O)c2nc3ccccc3n(-c3ccc4c(c3)OCCO4)c2=O)C1=O (stereo not drawn) [II-230] | 5 | 4 | 5 | 5 | 4
